Reference: patent US20260242372A1, “NOVEL IMIDAZOPYRIDINE AND PYRAZOLOPYRIDINE SULFONAMIDE DERIVATIVES” (Hoffmann-La Roche Inc., priority 2022, published 2026)

Biological target: human GPR17 short isoform (Homo sapiens, UniProt Q13304)
Assay: GPR17 cAMP assay (hGPR17 cAMP, TR-FRET, antagonist mode)
Assay type: cell-based
Conditions: CHO-K1 cells stably expressing human GPR17 short isoform; EC80 of agonist MDL29,951; forskolin 15 μM; 30 min at room temperature
Protocol: CHO-K1 cells stably expressing vector containing untagged human GPR17 short isoform (Roche) were cultured at 37° C./5% CO2 in DMEM (Dulbecco's Modified Eagle Medium): F-12 (1:1) supplemented with 10% foetal bovine serum and 400 μg/ml Geneticin.
Changes in intracellular cyclic adenosine monophosphate (cAMP) levels were quantified using the Nano-TRF Detection Assay kit (Roche Diagnostics, Cat. No. 05214386001). This assay allows for direct cAMP quantification in a homogeneous solution. CAMP is detected based on time-resolved fluorescence energy transfer (TR-FRET) and competitive binding of ruthenylated cAMP and endogenous cAMP to an anti-cAMP monoclonal antibody labeled with AlexaFluor-700. The Ruthenium complex serves as the FRET donor and transfers energy to AlexaFluor-700. The FRET signal is inversely proportional to the CAMP concentration.
CHO-GPR17S cells were detached with Accutase and resuspended in assay buffer consisting of Hank's Balanced Salt Solution (HBSS), 10 mM HEPES (4-(2-hydroxyethyl) piperazine-1-ethanesulfonic acid solution) and 0.1% bovine serum albumin (pH 7.4). The cells were seeded in black 384-well plates (Corning) at a density of 10′000 cells/20 μl assay buffer until the addition of compounds.
Test antagonist compounds were serially diluted in dimethyl sulfoxide (DMSO) and spotted in 384-well plates. The compounds were then diluted in HBSS buffer supplemented with an EC80 concentration of MDL29,951 (3-(2-Carboxy-4,6-dichloroindol-3-yl) propionic acid) (GPR17 agonist) plus 3-Isobutyl-1-methylxanthine (IBMX) (0.5 mM final concentration) and added to the cells at room temperature. Forskolin (15 μM final concentration) was added 5 minutes after the test compounds and the cells were incubated at room temperature for 30 minutes. The assay was stopped by adding cAMP detection mix (containing detergents for cell lysis) for 90 minutes at room temperature.
Cellular cAMP was measured using a Paradigm reader (Molecular Devices). The raw data was used to calculate the FRET signal based on the assay's P-factor as per cAMP kit instructions. The data was normalized to the maximal activity of a reference antagonist and dose response curves were fitted to the percent activity of the test compounds using a sigmoidal dose response model (Genedata Screener).

Sequence of human GPR17 short isoform (Q13304 29-367): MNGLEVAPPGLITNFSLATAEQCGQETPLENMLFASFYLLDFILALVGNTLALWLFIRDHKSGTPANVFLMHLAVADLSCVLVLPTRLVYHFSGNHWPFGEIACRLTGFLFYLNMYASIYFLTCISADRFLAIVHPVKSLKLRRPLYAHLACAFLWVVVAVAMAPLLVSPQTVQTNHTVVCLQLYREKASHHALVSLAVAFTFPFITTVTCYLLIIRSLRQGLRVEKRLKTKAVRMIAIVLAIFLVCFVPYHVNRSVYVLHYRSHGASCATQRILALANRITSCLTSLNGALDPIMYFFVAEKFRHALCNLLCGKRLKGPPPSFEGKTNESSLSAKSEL

| Structure (SMILES) | IC50 [nM] |
| --- | --- |
| COc1ccn2c(S(=O)(=O)Nc3cc(F)c(CC#N)cc3F)cnc2c1 [Example 55, N-[4-(cyanomethyl)-2,5-difluoro-phenyl]-7-methoxy-imidazo[1,2-a]pyridine-3-sulfonamide] | 116 |
| COc1c(C)ccn2c(S(=O)(=O)Nc3cc(F)c(C#N)cc3F)cnc12 [Example 98, N-(4-cyano-2,5-difluoro-phenyl)-8-methoxy-7-methyl-imidazo[1,2-a]pyridine-3-sulfonamide] | 819 |
| COc1nc(OCC(F)F)c(F)cc1NS(=O)(=O)c1cnc2n1CC(C)C2 (stereo not shown) [Example 72, N-[6-(2,2-difluoroethoxy)-5-fluoro-2-methoxy-3-pyridyl]-6-methyl-6,7-dihydro-5H-pyrrol[1,2-a]imidazole-3-sulfonamide] | 449 |
| COc1nc(OCC(F)F)c(F)cc1NS(=O)(=O)c1cnn2cc(C3COC3)ccc12 [Example 104, N-[6-(2,2-difluoroethoxy)-5-fluoro-2-methoxy-3-pyridyl]-6-(oxetan-3-yl)pyrazolo[1,5-a]pyridine-3-sulfonamide] | 306 |
| COc1nc(OCC(F)F)c(F)cc1NS(=O)(=O)c1cnn2c(C#N)c(C)ccc12 [Example 84, 7-cyano-N-[6-(2,2-difluoroethoxy)-5-fluoro-2-methoxy-3-pyridyl]-6-methyl-pyrazolo[1,5-a]pyridine-3-sulfonamide] | 130 |
| Cc1ccn2c(S(=O)(=O)Nc3cc(F)c(OC(F)F)nc3OC(F)F)cnc2c1C#N [Example 66, N-[2,6-bis(difluoromethoxy)-5-fluoro-3-pyridyl]-8-cyano-7-methyl-imidazo[1,2-a]pyridine-3-sulfonamide] | 289 |
| N#CCc1cc(F)c(NS(=O)(=O)c2cnc3c(F)c(Cl)ccn23)cc1F [Example 68, 7-chloro-N-[4-(cyanomethyl)-2,5-difluoro-phenyl]-8-fluoro-imidazo[1,2-a]pyridine-3-sulfonamide] | 329 |
| COc1nc(OCC(F)F)c(F)cc1NS(=O)(=O)c1cnc2c(C#N)cccn12 [Example 69, 8-cyano-N-[6-(2,2-difluoroethoxy)-5-fluoro-2-methoxy-3-pyridyl]imidazo[1,2-a]pyridine-3-sulfonamide] | 393 |
| Cc1ccn2c(S(=O)(=O)Nc3cc(F)c(CC#N)cc3F)cnc2c1C#N [Example 67, 8-cyano-N-[4-(cyanomethyl)-2,5-difluoro-phenyl]-7-methyl-imidazo[1,2-a]pyridine-3-sulfonamide] | 301 |
| COc1nc(OCC(F)F)c(F)cc1NS(=O)(=O)c1cnn2c1COC(C)C2 (stereo not shown) [Example 88, N-[6-(2,2-difluoroethoxy)-5-fluoro-2-methoxy-3-pyridyl]-6-methyl-6,7-dihydro-4H-pyrazolo[5,1-c][1,4]oxazine-3-sulfonamide] | 692 |
| COc1nc(NS(=O)(=O)c2cnc3cc(Br)ccn23)nc(OC)c1Br [Example 46, 7-bromo-N-(5-bromo-4,6-dimethoxy-pyrimidin-2-yl)imidazo[1,2-a]pyridine-3-sulfonamide] | 82 |
| COc1nc(OCC(F)F)c(F)cc1NS(=O)(=O)c1cnc2n1CCCC2C (stereo not shown) [Example 50, N-[6-(2,2-difluoroethoxy)-5-fluoro-2-methoxy-3-pyridyl]-8-methyl-5,6,7,8-tetrahydroimidazo[1,2-a]pyridine-3-sulfonamide] | 98 |
| COc1nc(OCC(F)F)c(F)cc1NS(=O)(=O)c1cnc2c(C#N)c(Cl)ccn12 [Example 52, 7-chloro-8-cyano-N-[6-(2,2-difluoroethoxy)-5-fluoro-2-methoxy-3-pyridyl]imidazo[1,2-a]pyridine-3-sulfonamide] | 99 |
| COc1nc(OCC(F)F)c(F)cc1NS(=O)(=O)c1cnn2c1CCC(C)C2 (stereo not shown) [Example 83, N-[6-(2,2-difluoroethoxy)-5-fluoro-2-methoxy-3-pyridyl]-6-methyl-4,5,6,7-tetrahydropyrazolo[1,5-a]pyridine-3-sulfonamide] | 100 |
| O=S(=O)(Nc1cc(F)c(OC(F)F)cc1F)c1cnn2cc(Br)ccc12 [Example 85, 6-bromo-N-[4-(difluoromethoxy)-2,5-difluoro-phenyl]pyrazolo[1,5-a]pyridine-3-sulfonamide] | 251 |
| COc1nc(OCC(F)F)c(F)cc1NS(=O)(=O)c1cnc2c(C#N)c(OC(F)F)ccn12 [Example 65, 8-cyano-N-[6-(2,2-difluoroethoxy)-5-fluoro-2-methoxy-3-pyridyl]-7-(difluoromethoxy)imidazo[1,2-a]pyridine-3-sulfonamide] | 270 |

Stronger by IC50, values ahead:

| IC50 [nM] | Structure (SMILES) |
| --- | --- |
| 76 | COc1nc(OCC(F)F)c(F)cc1NS(=O)(=O)c1cnc2n1CCC(C)(C)C2 [Example 45, N-[6-(2,2-difluoroethoxy)-5-fluoro-2-methoxy-3-pyridyl]-7,7-dimethyl-6,8-dihydro-5H-imidazo[1,2-a]pyridine-3-sulfonamide] |
| 72 | COc1nc(OCC(F)F)c(F)cc1NS(=O)(=O)c1cnc2nc(Cl)ccn12 [Example 42, 7-chloro-N-[6-(2,2-difluoroethoxy)-5-fluoro-2-methoxy-3-pyridyl]imidazo[1,2-a]pyrimidine-3-sulfonamide] |
| 66 | COc1nc(OCC(F)F)c(F)cc1NS(=O)(=O)c1cnc2n1CCC(C(F)(F)F)C2 (stereo not shown) [Example 41, N-[6-(2,2-difluoroethoxy)-5-fluoro-2-methoxy-3-pyridyl]-7-(trifluoromethyl)-5,6,7,8-tetrahydroimidazo[1,2-a]pyridine-3-sulfonamide] |
| 64 | COc1nc(NS(=O)(=O)c2cnc3cc(Cl)ccn23)c(F)cc1OC(F)F [Example 40, 7-chloro-N-[5-(difluoromethoxy)-3-fluoro-6-methoxy-2-pyridyl]imidazo[1,2-a]pyridine-3-sulfonamide] |
| 56 | COc1ccn2c(S(=O)(=O)Nc3cc(F)c(OCC(F)F)nc3OC)cnc2n1 [Example 37, N-[6-(2,2-difluoroethoxy)-5-fluoro-2-methoxy-3-pyridyl]-7-methoxy-imidazo[1,2-a]pyrimidine-3-sulfonamide] |
| 42 | COc1nc(OCC(F)F)c(F)cc1NS(=O)(=O)c1cnc2c(C#N)c(C3CC3)ccn12 [Example 33, 8-cyano-7-cyclopropyl-N-[6-(2,2-difluoroethoxy)-5-fluoro-2-methoxy-3-pyridyl]imidazo[1,2-a]pyridine-3-sulfonamide] |
| 26 | COc1nc(NS(=O)(=O)c2cnn3cc(Br)ccc23)c(F)cc1OCCF [Example 80, 6-bromo-N-[3-fluoro-5-(2-fluoroethoxy)-6-methoxy-2-pyridyl]pyrazolo[1,5-a]pyridine-3-sulfonamide] |
| 23 | COc1nc(OCC(F)F)c(F)cc1NS(=O)(=O)c1cnc2n1CCC(C)C2 (stereo not shown) [Example 23, N-[6-(2,2-difluoroethoxy)-5-fluoro-2-methoxy-3-pyridyl]-7-methyl-5,6,7,8-tetrahydroimidazo[1,2-a]pyridine-3-sulfonamide] |
| 19 | COc1cc(CC#N)c(F)cc1NS(=O)(=O)c1cnc2nc(C3CC3)ccn12 [Example 18, N-[4-(cyanomethyl)-5-fluoro-2-methoxy-phenyl]-7-cyclopropyl-imidazo[1,2-a]pyrimidine-3-sulfonamide] |
| 19 | COc1nc(OC(F)F)c(F)cc1NS(=O)(=O)c1cnc2c(OC)c(C)ccn12 [Example 19, N-[6-(difluoromethoxy)-5-fluoro-2-methoxy-3-pyridyl]-8-methoxy-7-methyl-imidazo[1,2-a]pyridine-3-sulfonamide] |
| 18 | CCc1ccn2c(S(=O)(=O)Nc3cc(F)c(OCC(F)F)nc3OC)cnc2c1 [Example 17, N-[6-(2,2-difluoroethoxy)-5-fluoro-2-methoxy-3-pyridyl]-7-ethyl-imidazo[1,2-a]pyridine-3-sulfonamide] |
| 14 | COc1nc(CC(F)F)c(F)cc1NS(=O)(=O)c1cnc2cc(Cl)ccn12 [Example 11, 7-chloro-N-[6-(2,2-difluoroethyl)-5-fluoro-2-methoxy-3-pyridyl]imidazo[1,2-a]pyridine-3-sulfonamide] |
| 11 | COc1nc(CCC(F)F)c(F)cc1NS(=O)(=O)c1cnc2cc(Cl)ccn12 [Example 9, 7-chloro-N-[6-(3,3-difluoropropyl)-5-fluoro-2-methoxy-3-pyridyl]imidazo[1,2-a]pyridine-3-sulfonamide] |
| 8 | COc1nc(NS(=O)(=O)c2cnn3cc(Br)ccc23)c(F)cc1OC(F)F [Example 99, 6-bromo-N-[5-(difluoromethoxy)-3-fluoro-6-methoxy-2-pyridyl]pyrazolo[1,5-a]pyridine-3-sulfonamide] |
| 6 | COc1nc(CC#N)c(F)cc1NS(=O)(=O)c1cnn2cc(Br)ccc12 [Example 77, 6-bromo-N-[6-(cyanomethyl)-5-fluoro-2-methoxy-3-pyridyl]pyrazolo[1,5-a]pyridine-3-sulfonamide] |
